In article PMC7802075 (ACS Infectious Diseases, 2020):
Where a name gives a salt, the structure may show the parent alone. Read-outs that look alike come from different tables or passages of the source.

Biological target: T1, LmjIPCS (inositol phosphorylceramide synthase from L. major) (Leishmania major, UniProt E9AFX2)
T1 sequence (E9AFX2 1-338): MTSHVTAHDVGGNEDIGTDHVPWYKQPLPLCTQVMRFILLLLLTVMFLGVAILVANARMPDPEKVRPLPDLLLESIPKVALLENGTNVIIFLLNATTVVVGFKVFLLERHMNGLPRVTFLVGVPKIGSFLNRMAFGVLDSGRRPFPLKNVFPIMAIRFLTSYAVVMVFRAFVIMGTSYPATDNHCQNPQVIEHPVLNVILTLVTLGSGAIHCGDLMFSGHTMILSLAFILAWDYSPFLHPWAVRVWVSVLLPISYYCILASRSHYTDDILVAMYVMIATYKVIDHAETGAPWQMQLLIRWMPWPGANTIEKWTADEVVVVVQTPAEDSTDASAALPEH
Assay: biochemical
Type: biochemical
Set-up: inhibition: dose or concentration left out as unconfirmed
Details: for inhibition at 20000 µM: read-out: 20mM inhibition LmjIPCS; for inhibition: read-out: inhibition LmjIPCS

[1] = screening of NINDS set, sheet Screen 1

N=C(N)N/N=C/c1c(Cl)cccc1Cl [GUANABENZ ACETATE]
20mM inhibition LmjIPCS: 55%

C[C@@H]1[C@H](O)[C@@H](C)/C=C/C=C/CC/C=C/C=C/C=C/C=C/C(O[C@H]2O[C@H](C)[C@@H](O)[C@H](N)[C@@H]2O)CC2O[C@](O)(CC(O)C(O)CCC(O)CC(O)CC(O)CC(=O)O[C@H]1C)CC(O)C2C(=O)O (stereo partly shown) [NYSTATIN]
20mM inhibition LmjIPCS: 32%

N[C@H](CO)Cc1ccccc1 [L-PHENYLALANINOL]
inhibition at 20000 µM: 24%

COc1ccc2cc([C@H](C)CO)ccc2c1 [NAPROXOL]
inhibition [1]: 4.4%

CN1CCCN=C1COC(=O)C(O)(c1ccccc1)C1CCCCC1 (stereo not shown) [OXYPHENCYCLIMINE]
20mM inhibition LmjIPCS: 53%

CN1CCN(CC/C=C2/c3ccccc3Sc3ccc(S(=O)(=O)N(C)C)cc32)CC1 [THIOTHIXENE]
inhibition (NINDS set screen): -24%

COc1ccc(C(=O)c2ccccc2O)c(O)c1 [DIOXYBENZONE]
inhibition: 11%

CCN(CC)CCOCCOC(=O)C1(c2ccccc2)CCCC1 [CARBETAPENTANE]
20mM inhibition LmjIPCS: 51%

c1ccc(/N=N/c2ccccc2)cc1 [AZOBENZENE]
inhibition at 20000 µM: 2.28%

Nc1ccc(S(N)(=O)=O)cc1 [SULFANILAMIDE]
inhibition at 20000 µM: -1.19%

O=C(O)c1cc2cc(Cc3cccnc3)ccc2o1 [FUREGRELATE]
inhibition at 20000 µM: -16%

CC1(C)[C@@H](OC(=O)CCC(=O)O)CC[C@]2(C)[C@H]3C(=O)C=C4[C@@H]5C[C@@](C)(C(=O)O)CC[C@]5(C)CC[C@@]4(C)[C@]3(C)CC[C@@H]12 [CARBENOXOLONE]
inhibition: 1.66%

N[C@H](Cc1ccccc1)C(=O)O [D-PHENYLALANINE]
inhibition [1]: 9%

C=CCc1ccc(O)c(OC)c1 [EUGENOL]
inhibition: 7%

COCCOC(=O)C1=C(C)NC(C)=C(C(=O)OC(C)C)C1c1cccc([N+](=O)[O-])c1 (stereo not shown) [NIMODIPINE]
20mM inhibition LmjIPCS: 36%

CNC(C)C1CCC(N)C(OC2C(N)CC(N)C(OC3OCC(C)(O)C(NC)C3O)C2O)O1 (stereo not shown) [GENTAMICIN]
inhibition: -1%

CCCNCC(O)COc1ccccc1C(=O)CCc1ccccc1 (stereo not shown) [PROPAFENONE]
20mM inhibition LmjIPCS: 61%

CC(=O)[C@H]1CC[C@H]2[C@@H]3CCC4=CC(=O)CC[C@]4(C)[C@H]3CC[C@]12C [PROGESTERONE]
20mM inhibition LmjIPCS: 65%

Nc1nc(N)c2nc(CNc3ccc(C(=O)N[C@@H](CCC(=O)O)C(=O)O)cc3)cnc2n1 [AMINOPTERIN]
inhibition at 20000 µM: 0.247%

CC[C@H]1OC(=O)[C@H](C)[C@@H](O[C@H]2C[C@@](C)(OC)[C@@H](O)[C@H](C)O2)[C@H](C)[C@@H](O[C@@H]2O[C@H](C)C[C@H](N(C)C)[C@H]2O)[C@](C)(O)C[C@@H](C)CN(C)[C@H](C)[C@@H](O)[C@]1(C)O [AZITHROMYCIN]
inhibition (NINDS set screen): 19%

NNC(=O)c1ccncc1 [ISONIAZID]
inhibition [1]: 9%

HECOGENIN
20mM inhibition LmjIPCS: 23%

O=C1CCO1 [BETA-PROPIOLACTONE]
20mM inhibition LmjIPCS: 1.45%

C[n+]1ccccc1/C=N/O [PRALIDOXIME MESYLATE]
inhibition at 20000 µM: 9%

CNC(Cc1c[nH]c2ccccc12)C(=O)O (stereo not shown) [ABRINE (L)]
20mM inhibition LmjIPCS: -1%

C[C@H](N)[C@H](O)c1cccc(O)c1 [METARAMINOL]
20mM inhibition LmjIPCS: 58%

O=C(CCCN1CC=C(n2c(=O)[nH]c3ccccc32)CC1)c1ccc(F)cc1 [DROPERIDOL]
20mM inhibition LmjIPCS: 56%

CN(C)[C@@H]1C(O)=C(C(N)=O)C(=O)[C@@]2(O)C(O)=C3C(=O)c4c(O)cccc4[C@@](C)(O)[C@H]3[C@H](O)[C@@H]12 [OXYTETRACYCLINE]
inhibition at 20000 µM: 18%

COC(=O)[C@H]1[C@H]2C[C@H]3c4[nH]c5ccccc5c4CCN3C[C@H]2CC[C@@H]1O [RAUWOLSCINE]
inhibition: 12%

c1ccc(-c2ccc(C(c3ccccc3)n3ccnc3)cc2)cc1 (stereo not shown) [BIFONAZOLE]
20mM inhibition LmjIPCS: 52%

C[C@]12CC[C@@H](OS(=O)(=O)O)C[C@@H]1CC[C@@H]1[C@@H]2CC[C@]2(C)C(=O)CC[C@@H]12 [ANDROSTERONE Sulfate]
20mM inhibition LmjIPCS: 33%
